Results reported in ChEMBL document CHEMBL6074656, “Biological evaluation of signal transducer and activator of transcription 3 (STAT3) targeting by phaeosphaeride A and its analogs” (Bioorg Med Chem Lett, 2024).

What was measured:
MDA-MB-231 = assay: Inhibition of cell growth in human MDA-MB-231 cells by MTT assay; format: functional, cell-based
HeLa = assay: Inhibition of cell growth in human HeLa cells by MTT assay; format: functional, cell-based
[1] = biological target: Signal transducer and activator of transcription 3 (Homo sapiens, UniProt P40763); assay: Inhibition of IL-6-induced STAT3 phosphorylation at Tyr705 in human HeLa cells by Western blot analysis; format: cell-based
U-266 = assay: Antiproliferative activity against human U-266 cells; format: functional, cell-based

Signal transducer and activator of transcription 3, sequence (P40763 whole entry): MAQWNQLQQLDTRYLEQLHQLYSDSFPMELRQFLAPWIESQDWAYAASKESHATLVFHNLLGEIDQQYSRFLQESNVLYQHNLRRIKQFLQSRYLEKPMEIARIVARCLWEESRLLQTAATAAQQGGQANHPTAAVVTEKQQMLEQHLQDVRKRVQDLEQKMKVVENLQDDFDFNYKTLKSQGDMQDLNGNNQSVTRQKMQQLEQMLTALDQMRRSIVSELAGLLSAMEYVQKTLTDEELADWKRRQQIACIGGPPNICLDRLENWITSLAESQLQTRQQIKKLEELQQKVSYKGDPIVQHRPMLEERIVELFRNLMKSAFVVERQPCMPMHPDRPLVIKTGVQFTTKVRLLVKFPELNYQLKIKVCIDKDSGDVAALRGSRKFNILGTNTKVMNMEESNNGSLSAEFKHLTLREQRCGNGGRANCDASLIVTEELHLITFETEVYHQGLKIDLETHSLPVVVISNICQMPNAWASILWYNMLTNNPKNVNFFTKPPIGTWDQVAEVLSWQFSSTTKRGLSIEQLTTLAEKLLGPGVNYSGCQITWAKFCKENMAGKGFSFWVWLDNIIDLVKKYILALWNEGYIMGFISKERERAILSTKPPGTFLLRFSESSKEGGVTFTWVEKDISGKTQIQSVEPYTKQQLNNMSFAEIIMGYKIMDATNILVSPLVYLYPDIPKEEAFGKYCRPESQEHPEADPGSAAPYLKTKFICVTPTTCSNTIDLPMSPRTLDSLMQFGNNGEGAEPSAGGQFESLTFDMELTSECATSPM

Row | Compound | IC50 (MDA-MB-231) [µM] | IC50 (HeLa) [µM] | IC50 [1] [µM] | inhibition ([1]; dose <= 100.0 µM) | IC50 (U-266) [µM]
1 | C=C1C2=C(C(=O)N1OC)[C@H](O)[C@@](C)(O)[C@@H](CCCCC)O2 | 19.8 | 6.1 | 7.3 |  | 
2 | C=C1C2=C(C(=O)N1OC)[C@@H](O)[C@](C)(O)[C@@H](CCCCC)O2 | 8.9 | 4.2 | 6.6 |  | 
3 | C=C1C2=C(C(=O)N1OC)[C@H](O)[C@@](C)(O)[C@H](CCCCC)O2 | 29.7 | 8.8 | 13.5 | Dose-dependent-effect | 6.7
4 | O=[N+]([O-])c1ccc2c(c1)S(=O)(=O)C=C2 | 3.4 | 0.57 | < 6.3 |  | 
5 | C=C1C2=C(C(=O)N1OC)[C@@H](O)[C@@](C)(O)[C@@H](CCCCC)O2 | 16.2 | 4.2 | 9.2 |  | 
6 | C=C1C2=C(C(=O)N1OC)[C@@H](O)[C@@](C)(O)[C@H](CCCCC)O2 | 24.2 | 8.4 | 20.2 |  | 
7 | CCCCC[C@@H]1OC2=C(C(=O)N(OC)C2=O)[C@H](O)[C@@]1(C)O | > 50 | > 50 | > 100 |  | 
